IC50 data for 18 compounds are collected here from patent publication US8030500B2, “Substituted isoindoles for the treatment and/or prevention of Aβ- related pathologies” (AstraZeneca AB, priority 2008, dated 2011).

The structures appear in SMILES notation. Structures can show the parent of a compound that is named as a salt.

T1 sequence (P56817 22-460): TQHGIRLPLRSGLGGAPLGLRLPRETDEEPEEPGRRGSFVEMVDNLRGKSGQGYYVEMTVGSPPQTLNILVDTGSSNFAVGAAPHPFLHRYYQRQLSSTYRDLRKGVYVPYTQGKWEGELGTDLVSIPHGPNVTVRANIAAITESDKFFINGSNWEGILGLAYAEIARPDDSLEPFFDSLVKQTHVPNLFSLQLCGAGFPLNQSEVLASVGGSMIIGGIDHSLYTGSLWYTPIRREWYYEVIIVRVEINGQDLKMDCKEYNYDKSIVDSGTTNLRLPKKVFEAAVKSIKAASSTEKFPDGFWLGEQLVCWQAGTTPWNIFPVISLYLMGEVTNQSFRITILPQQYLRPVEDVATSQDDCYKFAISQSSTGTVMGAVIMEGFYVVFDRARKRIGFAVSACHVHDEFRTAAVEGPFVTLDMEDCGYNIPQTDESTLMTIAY

The assay addresses T1, human β-Secretase (Homo sapiens, UniProt P56817).
T1 construct: soluble part of the human β-Secretase (AA 1-AA 460); Fc domain of IgG1; made in house
Put plainly: TR-FRET assay (β-secretase enzyme, sBACE-Fc). It counts as biochemical. Conditions: soluble human β-secretase (sBACE-Fc), substrate (Europium)[…](Qsy7) 100 nM, pH4.5; read-out: IC50 in TR-FRET assay. The procedure:
The β-secretase enzyme used in the TR-FRET is prepared as follows:
The cDNA for the soluble part of the human β-Secretase (AA 1-AA 460) was cloned using the ASP2-Fc10-1-IRES-GFP-neoK mammalian expression vector. The gene was fused to the Fc domain of IgG1 (affinity tag) and stably cloned into HEK 293 cells.
The robotic systems Biomek FX and Velocity 11 were used for all liquid handling and the enzyme and substrate solutions were kept on ice until they were placed in the robotic system. Enzyme (9 μl) was added to the plate then 1 μl of compound in dimethylsulphoxide was added, mixed and pre-incubated for 10 minutes. Substrate (10 μl) was then added, mixed and the reaction proceeded for 15 minutes at room temperature. The reaction was stopped with the addition of Stop solution (7 μl, NaAcetate, pH 9). […] The dimethylsulphoxide control, instead of test compound, defined the 100% activity level and 0% activity was defined by wells lacking enzyme (replaced with reaction buffer).
A general note: TR-FRET usually uses a lanthanide donor and a delayed reading to cut background.
For the compound `NC1=NC(c2cccc(-c3cnccn3)c2)(c2ccnc(C3CC3)c2)c2cccc(F)c21` (stereo not drawn) [Example 37, 1-(2-Cyclopropylpyridin-4-yl)-4-fluoro-1-(3-(pyrazin-2-yl)phenyl)-1H-isoindol-3-amine trifluoroacetate], the IC50 is 87 nM.

Regarding `COc1ccnc(-c2cccc(C3(c4ccnc(OC)c4)N=C(N)c4c(F)cccc43)c2)c1` (stereo not drawn) [Example 38, 4-Fluoro-1-(3-(4-methoxypyridin-2-yl)phenyl)-1-(2-methoxypyridin-4-yl)-1H-isoindol-3-amine], the IC50 came out at 430 nM.

`COc1cc(C2(c3cccc(-c4cc(C#N)ccn4)c3)N=C(N)c3c(F)cccc32)ccn1` (stereo not drawn) [Example 39, 2-(3-(3-Amino-4-fluoro-1-(2-methoxypyridin-4-yl)-1H-isoindol-1-yl)phenyl)isonicotinonitrile]: the half-inhibitory concentration (IC50) turned out to be 1100 nM.

Turning to `NC1=NC(c2ccnc(-c3cncnc3)c2)(c2ccnc(C(F)F)c2)c2cccc(F)c21` (stereo not drawn) [Example 42, 1-(2-(Difluoromethyl)pyridin-4-yl)-4-fluoro-1-(2-(pyrimidin-5-yl)pyridin-4-yl)-1H-isoindol-3-amine], the IC50 was determined as 310 nM.

On to `COc1ccc(C2(c3cccc(-c4cncnc4)c3)N=C(N)c3c(F)cccc32)cc1C#N` (stereo not drawn) [Example 43, 5-(3-Amino-4-fluoro-1-(3-(pyrimidin-5-yl)phenyl)-1H-isoindol-1-yl)-2-methoxybenzonitrile], for which the IC50 is 560 nM.

With `COc1c(C)cc(C2(c3cccc(-c4cncnc4)c3)N=C(N)c3c(F)cccc32)nc1C` (stereo not drawn) [Example 44, 4-Fluoro-1-(5-methoxy-4,6-dimethylpyridin-2-yl)-1-(3-(pyrimidin-5-yl)phenyl)-1H-isoindol-3-amine], the IC50 amounted to 79 nM.

Consider `Cc1cc(C2(c3cccc(-c4cncnc4)c3)N=C(N)c3c(F)cccc32)nc(C)n1` (stereo not drawn) [Example 45, 1-(2,6-Dimethylpyrimidin-4-yl)-4-fluoro-1-(3-(pyrimidin-5-yl)phenyl)-1H-isoindol-3-amine], for which the IC50 was determined as 270 nM.

With `COc1cc(C2(c3cccc(-c4cncnc4)c3)N=C(N)c3c(F)cccc32)cc(F)c1F` (stereo not drawn) [Example 46, 1-(3,4-Difluoro-5-methoxyphenyl)-4-fluoro-1-(3-(pyrimidin-5-yl)phenyl)-1H-isoindol-3-amine], the IC50 was 690 nM.

As to `COc1c(C)cc(C2(c3cccc(-c4cncnc4)c3)N=C(N)c3c(F)cccc32)cc1CC#N` (stereo not drawn) [Example 47, 2-(5-(3-Amino-4-fluoro-1-(3-(pyrimidin-5-yl)phenyl)-1H-isoindol-1-yl)-2-methoxy-3-methylphenyl) acetonitrile], the IC50 was determined as 83 nM.

Regarding `COc1cc(C2(c3cccc(-c4cncnc4)c3)N=C(N)c3c(F)cccc32)ccc1F` (stereo not drawn) [Example 48, 4-Fluoro-1-(4-fluoro-3-methoxyphenyl)-1-(3-(pyrimidin-5-yl)phenyl)-1H-isoindol-3-amine], the IC50 is 350 nM.

Take `COc1ncc(C2(c3cccc(-c4cncnc4)c3)N=C(N)c3c(F)cccc32)cc1C(F)(F)F` (stereo not drawn) [Example 49, 4-Fluoro-1-(6-methoxy-5-(trifluoromethyl)pyridin-3-yl)-1-(3-(pyrimidin-5-yl)phenyl)-1 H-isoindol-3-amine]: the 50% inhibitory concentration (IC50) came to 600 nM.

For the compound `NC1=NC(c2ccnc(C(F)(F)F)c2)(c2ccc(O)c(-c3cnccn3)c2)c2cccc(F)c21` (stereo not drawn) [Example 50, 4-(3-Amino-4-fluoro-1-(2-(trifluoromethyl)pyridin-4-yl)-1H-isoindol-1-yl)-2-(pyrazin-2-yl)phenol], the IC50 came out at 420 nM.

Turning to `COc1ccc(C2(c3ccnc(C(F)(F)F)c3)N=C(N)c3c(F)cccc32)cc1-c1cncnc1` (stereo not drawn) [Example 51, 4-Fluoro-1-(4-methoxy-3-(pyrimidin-5-yl)phenyl)-1-(2-(trifluoromethyl)pyridin-4-yl)-1H-isoindol-3-amine], the half-maximal inhibitory concentration (IC50) stood at 5600 nM.

For `NC1=NC(c2ccnc(-c3cncnc3)c2)(c2ccnc(C3CC3)c2)c2cccc(F)c21` (stereo not drawn) [Example 52, 1-(2-Cyclopropylpyridin-4-yl)-4-fluoro-1-(2-(pyrimidin-5-yl)pyridin-4-yl)-1H-isoindol-3-amine], the concentration for half-maximal inhibition (IC50) was 690 nM.

In the case of `Cc1cc(C2(c3ccnc(-c4cncc(F)c4)c3)N=C(N)c3c(F)cccc32)nc(C)c1OC(F)F` (stereo not drawn) [Example 53, 3-(5-Difluoromethoxy-4,6-dimethyl-pyridin-2-yl)-7-fluoro-3-(5′-fluoro-[2,3′]bipyridinyl-4-yl)-3H-isoindol-1-ylamine], the IC50 was 910 nM.

Consider `COc1c(C)cc(C2(c3cccc(-c4cncnc4)c3)N=C(N)c3c(F)cccc32)cc1C#N` (stereo not drawn) [Example 54, 5-(3-Amino-4-fluoro-1-(3-(pyrimidin-5-yl)phenyl)-1H-isoindol-1-yl)-2-methoxy-3-methylbenzonitrile], for which the IC50 is 42 nM.

For `NC1=NC(c2cccc(-c3cncnc3)c2)(c2ccnc(C(F)(F)F)c2)c2cc(Cl)cc(F)c21` (stereo not drawn) [Example 55, 6-Chloro-4-fluoro-1-(3-(pyrimidin-5-yl)phenyl)-1-(2-(trifluoromethyl)pyridin-4-yl)-1H-isoindol-3-amine], the IC50 worked out at 150 nM.

With `Cc1cc(C2(c3cccc(-c4cncnc4)c3)N=C(N)c3c(F)cc(Cl)cc32)ccn1` (stereo not drawn) [Example 56, 6-Chloro-4-fluoro-1-(2-methylpyridin-4-yl)-1-(3-(pyrimidin-5-yl)phenyl)-1H-isoindol-3-amine], the IC50 came out at 230 nM.

The term IC50 denotes the concentration at which inhibition is half-maximal.
